Literature values, collected in patent US8637688B2, “Topical dosage form comprising tri-substituted glycerol compounds” (priority 2006, dated 2014).

Experiments:
[1] = system: cutaneous metastases from breast cancer; details: 6% solution, topical, average dose rate 0.3 mg/cm^2 skin area
[2] = 6% solution, topical

CCCCCCCCCCCCCCCCOP(=O)([O-])OCC[N+](C)(C)C [miltefosine, hexadecylphosphocholine]
patients treated who showed a beneficial response to the medicament [1]: about one third
skin irritations (redness, itching, cauterization or the like) shortly upon administration [2]: significant skin irritations
